This note sets out measurements from ChEMBL document CHEMBL5338807, “Design and Synthesis of Bouchardatine Derivatives as a Novel AMP-Activated Protein Kinase Activator for the Treatment of Colorectal Cancer” (J Med Chem, 2023).

Broadly, the IC50 is the concentration that inhibits the measured activity by half.

The experiment concerns RKO. In words: Antiproliferative activity against human RKO cells assessed as reduction in cell viability incubated for 24 hrs. The experiment is classed as functional, cell-based.
Turning to `CCCC(=O)Nc1nc(-c2[nH]c3ccccc3c2C=O)nc2ccccc12`, the 50% inhibitory concentration (IC50) is over 10 µM.

For `Cc1ccc2[nH]c(-c3nc(NCCN(C)C)c4ccccc4n3)c(C=O)c2c1`, the IC50 amounted to 0.7 µM.

`O=Cc1c(-c2nc(NC34CC5CC(CC(C5)C3)C4)c3ccccc3n2)[nH]c2ccccc12`: the IC50 was over 10 µM.

As for `Cc1ccc2[nH]c(-c3nc(NCCCN(C)C)c4ccccc4n3)c(C=O)c2c1`, the concentration for half-maximal inhibition (IC50) was determined as 2 µM.

`COCCCNc1nc(-c2[nH]c3ccccc3c2C=O)nc2ccccc12`: the half-inhibitory concentration (IC50) stood at 1.1 µM.

As for `CN(C)CCCNc1nc(-c2[nH]c3ccc(Cl)cc3c2C=O)nc2ccccc12`, the half-inhibitory concentration (IC50) was found to be 4.1 µM.

As to `COc1ccc2[nH]c(-c3nc(NCCN4CCCC4)c4ccccc4n3)c(C=O)c2c1`, the IC50 amounted to 1.6 µM.

In the case of `C=Cc1c(C)nc(-c2[nH]c3ccccc3c2C(C)=O)nc1NCCCN1CCCC1`, the concentration for half-maximal inhibition (IC50) was over 10 µM.

On to `COC(=O)c1c(-c2nc(NCCN3CCCC3)c3ccccc3n2)[nH]c2ccccc12`, for which the IC50 turned out to be 6.1 µM.

For `O=Cc1c(-c2nc(NCCCC(F)(F)F)c3ccccc3n2)[nH]c2ccccc12`, the IC50 is 4.6 µM.

For the compound `Cc1ccc(S(=O)(=O)Nc2nc(-c3[nH]c4ccccc4c3C=O)nc3ccccc23)cc1`, the IC50 is over 10 µM.

For the compound `O=Cc1c(-c2nc(NCCO)c3ccccc3n2)[nH]c2ccccc12`, the IC50 was over 10 µM.

On to `O=Cc1c(-c2nc(NC(C3CC3)C3CC3)c3ccccc3n2)[nH]c2ccccc12`, for which the IC50 turned out to be 6 µM.

On to `O=Cc1c(-c2nc(NCCN3CCCC3)c3ccccc3n2)[nH]c2ccc(Cl)cc12`, for which the IC50 is 2.5 µM.

Take `CN(C)c1nc(-c2[nH]c3ccccc3c2C=O)nc2ccccc12`: the half-maximal inhibitory concentration (IC50) worked out at 4.8 µM.

Consider `O=Cc1c(-c2nc(NCCNC(=O)C3CC3)c3ccccc3n2)[nH]c2ccccc12`, for which the concentration for half-maximal inhibition (IC50) turned out to be 1.2 µM.

As to `O=Cc1c(-c2nc(NCC(F)F)c3ccccc3n2)[nH]c2ccccc12`, the IC50 was determined as 7.9 µM.

For `O=Cc1c(-c2nc(NCC3CC3)c3ccccc3n2)[nH]c2ccccc12`, the IC50 amounted to 4.8 µM.

As to `O=Cc1c(-c2nc(NCCCC(=O)O)c3ccccc3n2)[nH]c2ccccc12`, the IC50 was over 10 µM.

As for `O=Cc1c(-c2nc(NCCN3CCCC3)c3ccccc3n2)[nH]c2ccccc12`, the IC50 came to 1.1 µM.

Turning to `CC(=O)c1c(-c2nc(NCCN3CCCCC3)c3ccccc3n2)[nH]c2ccccc12`, the IC50 stood at 9.5 µM.

Take `O=Cc1c(-c2nc(NCCN3CCCC3)c3ccccc3n2)[nH]c2ccc(F)cc12`: the IC50 was found to be 2.1 µM.

For `Cc1c(-c2nc(N(C)CCCN(C)C)c3ccccc3n2)[nH]c2ccccc12`, the 50% inhibitory concentration (IC50) was over 10 µM.

Consider `O=Cc1c(-c2nc(NCC3CCC3)c3ccccc3n2)[nH]c2ccccc12`, for which the concentration for half-maximal inhibition (IC50) stood at 6.2 µM.

Take `O=Cc1c(-c2nc(Nc3ccc(N4CCCCC4)cc3)c3ccccc3n2)[nH]c2ccccc12`: the IC50 was over 10 µM.

`CC(C)(C)OC(=O)NCCCNc1nc(-c2[nH]c3ccccc3c2C=O)nc2ccccc12`: the IC50 amounted to 5.4 µM.

Regarding `COc1ccc2[nH]c(-c3nc(NCCCN(C)C)c4ccccc4n3)c(C=O)c2c1`, the half-maximal inhibitory concentration (IC50) amounted to 8.1 µM.

With `CN(C)CCCN(CCCN(C)C)c1nc(-c2[nH]c3ccccc3c2C=O)nc2ccccc12`, the concentration for half-maximal inhibition (IC50) amounted to 1.8 µM.

With `Cc1c(-c2nc(NCCCN3CCN(C)CC3)c3ccccc3n2)[nH]c2ccccc12`, the IC50 was over 10 µM.

As to `CC(=O)c1c(-c2nc(NCCN(C)C)c3ccccc3n2)[nH]c2ccccc12`, the IC50 is over 10 µM.

Consider `CC(=O)c1c(-c2nc(NCCCN(C)C)c3ccccc3n2)[nH]c2ccccc12`, for which the concentration for half-maximal inhibition (IC50) is over 10 µM.

As to `CCCS(=O)(=O)Nc1nc(-c2[nH]c3ccccc3c2C=O)nc2ccccc12`, the IC50 is over 10 µM.

As to `O=Cc1c(-c2nc(NCCCC(=O)N3CCCC3)c3ccccc3n2)[nH]c2ccccc12`, the IC50 was found to be 8.7 µM.

Consider `Cc1c(-c2nc(NCCN3CCCCC3)c3ccccc3n2)[nH]c2ccccc12`, for which the 50% inhibitory concentration (IC50) was over 10 µM.

Turning to `Cc1ccc(CCNc2nc(-c3[nH]c4ccccc4c3C=O)nc3ccccc23)cc1`, the half-inhibitory concentration (IC50) stood at 1.8 µM.

As for `CN(C)CCNc1nc(-c2[nH]c3ccc(Cl)cc3c2C=O)nc2ccccc12`, the concentration for half-maximal inhibition (IC50) came to 5.3 µM.
